These results are taken from ChEMBL document CHEMBL3301546, “MMV Malaria Box yeast growth screening”.

Common to all, as to format: functional
The test system of experiment [1] is Saccharomyces cerevisiae. The experiment can be described thus: (§1) MMV: Growth assays were conducted using the prototrophic S. cerevisiae strain JHY222. Each MMV compound (0.1 mM) was tested in rich media containing dextrose as a carbon source (Yeast Extract, Peptone, Dextrose; YPD). The growth rate in the presence of each MMV compound was calculated as follows: (i) the first 10 OD readings were averaged and subtracted from all OD readings of the corresponding curve to set the baseline of the growth curve to zero, and (ii) the area under the curve (AUC) was then calculated as the sum of all OD readings. […] A relative growth value was calculated as follows: AUC(DRUG) - AUC(DMSO)/AUC(DMSO); where AUC(DMSO) represents growth measured in a DMSO control well that was on the same microtiter plate of the drug-treated culture.

In experiment [2] the test system is Saccharomyces cerevisiae. The description is as §1, with “minimal” for “rich”, “Nitrogen Base,” for “Extract, Peptone,”, “YNBD).” for “YPD).”.
Experiment [3] relates to Saccharomyces cerevisiae. The description is as §1, with “minimal” for “rich”, “ethanol and glycerol” for “dextrose”, “as” for “as a”, “sources” for “source”, “Nitrogen Base, Ethanol, Glycerol; YNBEG).” for “Extract, Peptone, Dextrose; YPD).”.

In the case of `CN1CCN(c2c3c(c(C#N)c4nc5ccccc5n24)CCC3)CC1`, the “Relative Growth” value is -0.0644 in the experiment with Saccharomyces cerevisiae [1], 0.2469 in the experiment on Saccharomyces cerevisiae [2] and -0.4878 in the experiment with Saccharomyces cerevisiae [3].
On to `Br.CCn1c2c(c(=N)c3c1CCC3)CCCC2`, for which the entries for the “Relative Growth” value in the experiment on Saccharomyces cerevisiae [1], with Saccharomyces cerevisiae [2] and in the experiment on Saccharomyces cerevisiae [3] were -0.135, -0.0127 and -0.0042, respectively.
With `Cc1ccc2cc3c(N)c4c(C)ccc(C)c4nc3nc2c1`, the “Relative Growth” value with Saccharomyces cerevisiae [1] is reported as 0.0134; in the experiment with Saccharomyces cerevisiae [2] it was 0.1003; with Saccharomyces cerevisiae [3], 0.0509.
On the same counts, the results for `C=C(C)CCC(C)N1CCC(N2CCC(C(=O)NCCc3ccccc3)CC2)CC1` (stereo unspecified) are -0.0567, 0.0261 and -0.0755.
Turning to `CC(NCc1ccccc1)c1cc(Cl)ccc1O` (stereo unspecified), the “Relative Growth” value in the experiment with Saccharomyces cerevisiae [1] is on record as -0.0386; with Saccharomyces cerevisiae [2], 0.042.
Regarding `O=C(Nc1ccc(Br)cc1)Nc1cccc(Cl)c1`, the “Relative Growth” value in the experiment with Saccharomyces cerevisiae [1] is -1.0018; in the experiment with Saccharomyces cerevisiae [2], -0.1739; with Saccharomyces cerevisiae [3], -0.1301.
In the case of `CCCCCCc1cc2cc(-c3csc(C=Cc4ccccc4)n3)c(=O)oc2cc1O`, the “Relative Growth” value with Saccharomyces cerevisiae [1] is given as -0.0646; in the experiment on Saccharomyces cerevisiae [2], -0.058; in the experiment on Saccharomyces cerevisiae [3] it was -0.0651.
For the compound `Clc1ccc2c(N3CCCC3)ccnc2c1`, the “Relative Growth” value is recorded as -0.0453 with Saccharomyces cerevisiae [1], 0.0172 in the experiment on Saccharomyces cerevisiae [2] and -0.0954 in the experiment on Saccharomyces cerevisiae [3].
On to `COc1ccc(N2CCN(C(CNC(=O)C3CCCCC3)c3ccc4c(c3)OCO4)CC2)cc1` (stereo unspecified), for which the “Relative Growth” value was -0.0299 with Saccharomyces cerevisiae [1], -0.0986 in the experiment on Saccharomyces cerevisiae [2] and -0.124 in the experiment with Saccharomyces cerevisiae [3].
The matching figures for `CCOc1cc(Cl)c(C(C)NC(=O)c2cccc(OC)c2)cc1OCC` (stereo unspecified): -0.0293, -0.1186 and -0.0623.
The matching figures for `CC1=C(CC(=O)c2cccc([N+](=O)[O-])c2)C(=O)c2ccccc2C1=O`: -0.9318, -1.0109 and -1.022.
On the same counts, the results for `OC(CNCC1CCCO1)Cn1c2ccc(Cl)cc2c2cc(Cl)ccc21` (stereo unspecified) are -0.0004, 0.0307 and 0.0106.
As to `CC1(c2ccccc2)Nc2ccccc2-c2nc3ccccc3n21` (stereo unspecified), the “Relative Growth” value with Saccharomyces cerevisiae [1] is recorded as -0.9988; in the experiment on Saccharomyces cerevisiae [2], -0.2999; in the experiment on Saccharomyces cerevisiae [3] it was -0.5975.
Regarding `O=C(c1ccccc1F)N(Cc1ccc(Cl)cc1)c1ccccn1`, the “Relative Growth” value in the experiment with Saccharomyces cerevisiae [1] is reported as -0.0537; in the experiment on Saccharomyces cerevisiae [2] it was 0.0025; with Saccharomyces cerevisiae [3], -0.0049.
`Cc1cc(Nc2ccc(C)c(Cl)c2)n2nc(C(F)(F)F)nc2n1`: the “Relative Growth” value in the experiment with Saccharomyces cerevisiae [1] is on record as -0.0311; in the experiment with Saccharomyces cerevisiae [2], 0.1169; in the experiment on Saccharomyces cerevisiae [3], -0.6431.
The matching figures for `CC(O)(c1ccc(Cl)cc1)C(CN1CCCCC1)c1ccccc1.Cl` (stereo unspecified): 0.0259, -0.0009 and 0.0803.
Turning to `CN(C)CCCNCc1ccc(-c2ccc(F)c(Cl)c2)o1.Cl`, the “Relative Growth” value in the experiment on Saccharomyces cerevisiae [1] is -0.0396; in the experiment on Saccharomyces cerevisiae [2], 0.0576; with Saccharomyces cerevisiae [3], 0.0645.
On the same counts, the results for `CCN(CC)CCNc1ccnc2cc(Cl)ccc12` are -0.0501, 0.0543 and 0.0209.
On to `Cn1c(=O)c2cc(C(=O)NCCCN3CCCCCC3)sc2c2ccccc21`, for which the “Relative Growth” value is recorded as -0.0314 in the experiment with Saccharomyces cerevisiae [1], -0.1099 in the experiment with Saccharomyces cerevisiae [2] and 0.0018 in the experiment with Saccharomyces cerevisiae [3].
Regarding `CCN(CC)CCNc1ncnc2c1[nH]c1ccc(Br)cc12`, the figures for the “Relative Growth” value in the experiment on Saccharomyces cerevisiae [1], in the experiment on Saccharomyces cerevisiae [2] and in the experiment on Saccharomyces cerevisiae [3] were -0.0425, 0.101 and 0.0355, respectively.
Take `O=C(NC(c1ccccc1)c1ccc2cccnc2c1O)c1ccccc1` (stereo unspecified): the “Relative Growth” value is reported as 0.0169 in the experiment with Saccharomyces cerevisiae [1], -0.0745 in the experiment on Saccharomyces cerevisiae [2] and -0.2626 in the experiment with Saccharomyces cerevisiae [3].
Consider `O=C(NC1CCN(Cc2ccccc2)CC1)c1cc(-c2cccnc2)nc2ccc(Cl)cc12`, for which the “Relative Growth” value is on record as -0.0203 in the experiment on Saccharomyces cerevisiae [1], 0.0617 in the experiment with Saccharomyces cerevisiae [2] and 0.017 in the experiment with Saccharomyces cerevisiae [3].
In the case of `CC(C)(C)c1ccc(C(=O)Nc2c3c(nn2-c2cccc(Cl)c2)CSC3)cc1`, the “Relative Growth” value in the experiment on Saccharomyces cerevisiae [1] is listed as -0.0819; in the experiment with Saccharomyces cerevisiae [2], -0.3492; in the experiment on Saccharomyces cerevisiae [3] it was -0.291.
The matching figures for `O=C(Nc1ccc(N2CCN(Cc3ccccc3)CC2)cc1)c1cccs1.O=C(O)C(F)(F)F`: -0.129, -0.0637 and -0.0052.
Consider `Oc1ccc(-c2nc(-c3ccc4oc5ccc(-c6[nH]c(-c7ccc(O)cc7)nc6-c6ccccc6)cc5c4c3)c(-c3ccccc3)[nH]2)cc1`, for which the “Relative Growth” value is -0.979 with Saccharomyces cerevisiae [1], 0.0106 in the experiment with Saccharomyces cerevisiae [2] and -0.1734 with Saccharomyces cerevisiae [3].
The matching figures for `CN(C)c1ccc(N2C(N)=NC(N)=NC2(C)C)cc1`: -0.0542, 0.0279 and 0.007.
On the same counts, the results for `Cc1cc(N2CCCC2)nc(Nc2ccc(NC(=O)CCc3ccccc3)cc2)n1` are -0.047, -0.0661 and -0.093.
For `O=C(Nc1ccc(C23CC4CC(CC(c5ccccc5)(C4)C2)C3)cc1)c1cccs1`, the “Relative Growth” value in the experiment with Saccharomyces cerevisiae [1] was -1.0024; in the experiment with Saccharomyces cerevisiae [2] it was -0.46; with Saccharomyces cerevisiae [3], -0.1427.
Turning to `CC(C)CCNCC(O)Cn1c2ccccc2c2ccccc21.Cl` (stereo unspecified), the “Relative Growth” value in the experiment on Saccharomyces cerevisiae [1] was -0.9987; in the experiment with Saccharomyces cerevisiae [2] it was -0.9941; with Saccharomyces cerevisiae [3], -1.0262.
The matching figures for `OC1CCCCC1C1(NC(=S)Nc2ccccc2)CCCCC1` (stereo unspecified): 0.0255, -0.1203 and 0.0032.
The matching figures for `CCOC(=O)c1cnc2ccc(OC)cc2c1NCc1ccccc1`: -0.0244, -0.0203 and -0.1303.
The matching figures for `Cc1ccc(Nc2nc(N)c3ccccc3n2)cc1Cl`: -0.0022, -0.1031 and -0.1803.
In the case of `CCOc1cc(Br)c(C(C)NC(=O)c2cccc(OC)c2)cc1OCC` (stereo unspecified), the “Relative Growth” value in the experiment on Saccharomyces cerevisiae [1] is given as 0.0654; in the experiment on Saccharomyces cerevisiae [2] it was -0.0511; in the experiment on Saccharomyces cerevisiae [3], -0.5924.
On the same counts, the results for `Cc1cc(N(C)C)nc(Nc2ccc(NC(=O)Nc3ccccc3)cc2)n1` are -0.0299, -0.0678 and -0.3445.
The matching figures for `CN(C)c1ccc(N=Cc2ccc(N3CCOCC3)cc2)cc1`: -0.0781, 0.0616 and 0.068.
As to `O=C(Nc1ccsc1C(=O)NC1CCCCC1)c1ccc(F)cc1`, the results for the “Relative Growth” value in the experiment with Saccharomyces cerevisiae [1] and in the experiment on Saccharomyces cerevisiae [2] were -0.9286 and 0.1187, respectively.
